“And” between values parts separate entries of the source, which are not always exact repeats. Identical values can stand only once. Like-named read-outs stand apart in the source and are kept apart here.
Experiments:
[1] = Pharmacokinetics and absolute bioavailability of pure marker compounds after single oral and i.v. dose; format: in vivo, male Wistar rats; settings: for MRT: MRT (mean residence time); for half-life: t 1/2 (plasma half-life); for k el: plasma, read-out: Kel (elimination rate constant) (converted); for k el / Kel (elimination rate constant): rat plasma
Protocol: Plasma concentrations of active marker compounds were determined using validated high-performance thin layer chromatography (HPTLC) with the UV detection method.
The plasma samples (150 µl) were deproteinized by adding mixture of methanol: dichloromethane (1:1), followed by vortex mixing at 3000 rpm for 5 min. The supernatant was separated and further extracted with about 1.5 ml of ethyl acetate by mixing on vortex mixer at 3000 rpm for 10 min. The ethyl acetate layer was then collected and evaporated to dryness, followed by reconstitution with mobile phase (200 µl) containing chloroform: glacial acetic acid: methanol: water ((4.0:3.0:2.0:1.0) v/v and 100 µl was applied on a HPTLC plate. The optimized HPTLC conditions for development and quantification of the constituents is given in Table 2.
Absolute bioavailabilities of marker compounds viz. diosgenin, charantin, and hydroxychalcone were determined in male Wistar rats. The animals weighing 300–350 gm were fasted overnight before the dosing with free access to drinking water throughout the experimental period. For the purpose of dosing all the three marker compounds viz, diosgenin, charantin, and hydroxychalcone were suspended in water to make the dose of 15 mg/kg per oral to be administrated to the groups of […]. The animals were divided into two groups with six animals in each group. The first group received the marker compounds in the dose of 1.5 mg/kg i.v. via lateral tail vein, while the second group received the marker compounds in the dose of 15 mg/kg p.o. The rats were anesthetized using ether and blood samples were collected through puncturing the retro-orbital plexus at 0, 0.17, 0.5, 1, 2, 4, 6, 12, and 24 h time points. Blood samples were centrifuged to separate plasma and stored at −20°C until bioanalysis.
Non-compartmental analysis of data was performed using statistical moment theory. The peak plasma concentration (Cmax) and the corresponding time (Tmax) were directly obtained from the raw data.
The area under the plasma concentration vs. time curve upto the last quantifiable point, AUC(0-t), was calculated by the linear and log-linear trapezoidal rule summation: AUC(0−t) =∑C0+Ct/2× Tt− T0.
The AUC(0-t) was extrapolated to infinity (i.e., […]) by adding the quotient of Clast/Kel, AUC(t−∞) = Clast/Kel,
Kel was calculated by the linear regression of the log-transformed concentrations of the last three data points in the terminal phase. Kel = −slope × 2.303.
The half-life of the elimination phase was obtained from using the relationship, t 1/2 = 0.693/Kel.
Clearance was calculated using the relationship Cl = Vd × Kel
Apparent volume of distribution was calculated using relationship Vd = Dose Administered/Plasma concentration.
Absolute oral bioavailability (F) was calculated using relationship F = {[AUC (oral)/AUC (iv)] × [Dose (iv)/Dose (oral)]} × 100.

[2] = Stability of marker compounds (bioanalytical HPTLC, quality control samples); format: in vitro ADME, rat; settings: for Freeze thaw stability / Short-term room temperature stability: rat plasma
Protocol: Sample stability was determined by analyzing samples for quality control for analyte’s stock stability in solvent, refrigerator stock solution stability, freeze and thaw stability, and bench top stability. The stability experiments were carried out to evaluate the degradations of the marker compounds under different experimental conditions. […] As per the acceptance criteria, % ratio (Stability/comparison) should be within 85–115%; from the above results, it was concluded that all the marker compounds were within the acceptance criteria for stability study Table 7.

[3] = male, Wistar, rat, in vivo, iv, 1.5 mg/kg
[4] = male, Wistar, rat, in vivo, po, 15 mg/kg
[5] = pure marker, oral single dose 15 mg/kg, 15 mg/kg

C[C@@H]1CC[C@@]2(OC1)O[C@H]1C[C@H]3[C@@H]4CC=C5C[C@@H](O)CC[C@]5(C)[C@H]4CC[C@]3(C)[C@H]1[C@@H]2C [Diosgenin]
bioavailability ([1]; male, Wistar, rat, in vivo): 9 ± 0.2% | AUC 0-∞ [1, 3]: 4957.5 ± 440 ng·h/mL | Cl (drug clearance) [1, 3]: 0.2221 ± 0.05 mL/h/kg | Cmax [1, 3]: 612.2 ± 100 ng/mL | MRT (mean residence time) [1, 3]: 9.9420 ± 0.90 h | Vd (apparent volume of distribution) [1, 3]: 0.0025397 ± 0.00057 L/kg | t 1/2 (plasma half-life) [1, 3]: 7.9300 ± 0.37 h | AUC(0-inf) [1, 3]: 4470 ng·h/mL | clearance ([1]; male, Wistar, rat, in vivo, iv, 1.5 mg/kg, Cl (drug clearance)): 220 mL/h/kg | Cmax ([1]; male, Wistar, rat, in vivo, iv, 1.5 mg/kg, Cmax): 570 ng/mL | MRT [1, 3]: 8.2 h | Vd ([1]; male, Wistar, rat, in vivo, iv, 1.5 mg/kg, Vd (apparent volume of distribution)): 2.5 L/kg | half-life [1, 3]: 7.56 h | AUC 0-∞ [1, 4]: 4475.3 ± 60 ng·h/mL | Cl (drug clearance) [1, 4]: 2.5143 ± 0.09 mL/h/kg | Cmax [1, 4]: 577.3 ± 12 ng/mL | MRT (mean residence time) [1, 4]: 8.2008 ± 0.15 h | Tmax [1, 4]: 1 h | t 1/2 (plasma half-life) [1, 4]: 7.5638 ± 0.21 h | AUC(0-inf) [1, 4]: 4950 ng·h/mL | Cmax ([1]; male, Wistar, rat, in vivo, po, 15 mg/kg, Cmax): 610 ng/mL | MRT [1, 4]: 9.94 h | half-life [1, 4]: 7.93 h | k el ([1]; male, Wistar, rat, iv, 1.5 mg/kg, pure marker, IV single dose 1.5 mg/kg): 2.5e-05 s⁻¹ | k el ([1]; male, Wistar, rat, po, 15 mg/kg, pure marker, oral single dose 15 mg/kg): 2.22e-05 s⁻¹ | AUMC 0-∞ ([1]; pure marker, IV single dose 1.5 mg/kg): 17.3937 ± 2.10 µg.h^2/ml | Kel (elimination rate constant) ([1]; pure marker, IV single dose 1.5 mg/kg, 1.5 mg/kg): 0.0875 ± 0.004 h⁻¹ | AUMC 0-∞ ([1]; pure marker, oral single dose 15 mg/kg): 36.700 ± 0.77 µg.h^2/ml | Kel (elimination rate constant) [1, 5]: 0.0917 ± 0.003 h⁻¹ | Ka (rate of absorption) [1, 5]: 1.1 h⁻¹ and 1.1 ± 0.10 h⁻¹ | Refrigerator standard stock solution stability ([2]; 0.4 µg/ml): 91.73 ± 0.46% | Room temperature standard stock solution stability ([2]; 0.4 µg/ml): 85.18 ± 0.45% | Refrigerator standard stock solution stability ([2]; 0.8 µg/ml): 90.24 ± 1.13% | Room temperature standard stock solution stability ([2]; 0.8 µg/ml): 84.86 ± 1.23% | Refrigerator standard stock solution stability ([2]; 1.2 µg/ml): 89.56 ± 2.21% | Room temperature standard stock solution stability ([2]; 1.2 µg/ml): 85.03 ± 2.16% | Degradation in plasma ([2]; plasma, under different experimental conditions): no significant degradation | Freeze thaw stability ([2]; 0.4 µg/ml): 87.06% | Short-term room temperature stability ([2]; 0.4 µg/ml): 98.64% | Freeze thaw stability ([2]; 0.8 µg/ml): 94.52% | Short-term room temperature stability ([2]; 0.8 µg/ml): 97.90% | Freeze thaw stability ([2]; 1.2 µg/ml): 97.86% | Short-term room temperature stability ([2]; 1.2 µg/ml): 98.25%

Charantin
Absolute bioavailability ([1]; rat, in vivo): 8.18 ± 0.36% | AUMC 0-∞ ([1]; rat, in vivo, iv, 1.5 mg/kg): 182.9438 ± 1.74 µg.h^2/ml | AUMC 0-∞ ([1]; rat, in vivo, po, 15 mg/kg): 176.7245 ± 1.83 µg.h^2/ml | Cl (drug clearance) ([1]; rat, in vivo, po, 15 mg/kg): 5.9268 ± 0.31 mL/h/kg | Tmax ([1]; rat, in vivo, po, 15 mg/kg): 6 h | Degradation in plasma [2]: no significant degradation
